# Assay results: EP4745134A1 (Jiangsu Yahong Meditech Co., Ltd., priority 2023, dated 2025)
# pIC50: −log10 of the molar value.
# What was measured:
# PRMT5-MTA = PRMT5-MTA (Homo sapiens, UniProt O14744); test: Enzymatic inhibitory activity against PRMT5-MTA (AlphaScreen); assay type: biochemical; conditions: read-out: IC50
# Method in brief: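 PRMT5/[…] (1 nM) was preincubated for 30 min at room temperature with 1 µM […] and 2.5 µM SAM, then exposed to compound (10-point, 3-fold from 1000 nM) for 15 min at 23 °C. Histone H4 substrate (5 nM) was added and reacted for 45 min at 23 °C. Symmetric dimethyl-R3 H4 was detected by AlphaScreen and IC50 calculated.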
# HCT116 MTAP KO cells = test: Inhibitory activity against cell proliferation (CellTiter Glo, 6 days), HCT116 MTAP KO; assay type: cell-based; conditions: for pIC50: Homo sapiens, HCT-116, 144 h, HCT116 MTAP KO cells, 6 days, CellTiter Glo, read-out: HCT116 MTAP KO IC50; for Selectivity HCT 116-WT/ HCT116 MTAP KO: ratio of IC50 HCT116-WT / HCT116 MTAP KO
# Method in brief: (§1)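 250 cells/well, McCoy's 5A + 10% FBS, o/n 37°C 5% CO2; cpd 8-pt 4-fold from 10000 nM, 6 d; CTG lum on day 7; IC50 vs DMSO.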
# HCT116-WT cells = test: Inhibitory activity against cell proliferation (CellTiter Glo, 6 days), HCT116-WT; assay type: cell-based; conditions: 144 h, HCT116-WT cells, 6 days, CellTiter Glo; read-out: HCT116-WT IC50
# Method in brief: as §1
# Chain of PRMT5-MTA (O14744 whole entry): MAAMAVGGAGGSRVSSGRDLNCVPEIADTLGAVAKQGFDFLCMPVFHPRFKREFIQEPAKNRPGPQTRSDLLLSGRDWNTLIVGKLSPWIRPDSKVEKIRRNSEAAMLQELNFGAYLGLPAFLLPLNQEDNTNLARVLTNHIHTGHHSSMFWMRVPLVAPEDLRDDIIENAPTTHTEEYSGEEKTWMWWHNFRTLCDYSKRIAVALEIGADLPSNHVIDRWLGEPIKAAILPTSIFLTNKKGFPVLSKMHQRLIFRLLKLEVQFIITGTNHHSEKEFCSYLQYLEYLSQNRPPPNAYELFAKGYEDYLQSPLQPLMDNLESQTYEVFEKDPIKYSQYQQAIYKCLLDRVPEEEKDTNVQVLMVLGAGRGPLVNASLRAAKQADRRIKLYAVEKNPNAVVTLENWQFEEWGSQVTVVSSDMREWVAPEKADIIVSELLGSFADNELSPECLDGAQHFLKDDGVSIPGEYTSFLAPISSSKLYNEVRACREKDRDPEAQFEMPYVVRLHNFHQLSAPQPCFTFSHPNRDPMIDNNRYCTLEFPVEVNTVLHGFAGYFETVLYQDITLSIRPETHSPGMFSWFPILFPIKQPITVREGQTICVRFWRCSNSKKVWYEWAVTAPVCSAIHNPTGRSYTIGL
# Chain of PRMT5-MTA (Q9BQA1 whole entry partner): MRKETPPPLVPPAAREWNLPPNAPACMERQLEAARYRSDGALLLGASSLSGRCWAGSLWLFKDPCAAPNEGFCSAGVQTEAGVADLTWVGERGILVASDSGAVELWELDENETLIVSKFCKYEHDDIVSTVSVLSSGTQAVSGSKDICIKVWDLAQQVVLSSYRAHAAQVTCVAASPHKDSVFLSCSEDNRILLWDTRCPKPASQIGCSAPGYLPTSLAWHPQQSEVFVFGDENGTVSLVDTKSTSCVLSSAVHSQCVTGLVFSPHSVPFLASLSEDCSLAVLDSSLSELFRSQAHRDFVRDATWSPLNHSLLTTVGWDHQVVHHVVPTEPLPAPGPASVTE
SMILES,pIC50 (PRMT5-MTA),pIC50 (HCT116 MTAP KO cells),Selectivity HCT 116-WT/ HCT116 MTAP KO (HCT116 MTAP KO cells),pIC50 (HCT116-WT cells)
"Cc1cc2cc(C(=O)N(Cc3ccc(-c4cccnc4)cc3F)N(C)c3ncccn3)ccc2nc1N [Example 177, 2-amino-N-(2-fluoro-4-(pyridin-3-yl)benzyl)-N',3-dimethyl-N'-(pyrimidin-2-yl)qu inoline-6-carbohydrazide]",8.96,7.52,31.20,6.03
"Cc1cc2cc(C(=O)N(Cc3ccc(-c4ccncc4)cn3)N(C)c3ncccc3F)ccc2nc1N [Example 178, N-([3,4'-bipyridine]-6-ylmethyl)-2-amino -N'-(3-fluoropyridin-2-yl)-N',3-dimethylq uinoline-6-carbohydrazide]",8.80,7.68,23.14,6.31
"Cc1cc2cc(C(=O)N(Cc3ccc(-c4cnn(C)c4)cn3)N(C)c3ncccc3F)ccc2nc1N [Example 179, 2-amino-N'-(3-fluoropyridin-2-yl)-N',3-di methyl-N-((5-(1-methyl-1H-pyrazol-4-yl)pyridin-2-yl)methyl)quinoline-6-carbohy drazide]",8.47,7.19,20.56,5.88
"Cc1ncc(-c2ccc(CN(C(=O)c3ccc4nc(N)c(C)cc4c3)N(C)c3ncccn3)nc2)cn1 [Example 180, 2-amino-N',3-dimethyl-N-((5-(2-methylpyrimidin-5-yl)pyridin-2-yl)methyl)-N'-(pyrimidin-2-yl)quinoline-6-carbohydrazide]",8.49,7.39,45.73,5.73
"Cc1cc2cc(C(=O)N(Cc3ccc(-c4cnn(CC(F)(F)F)c4)cn3)N(C)c3ncccn3)ccc2nc1N [Example 181, 2-amino-N',3-dimethyl-N'-(pyrimidin-2-yl)-N-((5-(1-(2,2,2-trifluoroethyl)-1H-pyrazol-4-yl)pyridin-2-yl)methyl)quinoline-6-carbohydrazide]",9.16,7.44,24.03,6.06
"Cc1cc2cc(C(=O)N(Cc3ccc(-c4cncs4)cn3)N(C)c3nccc4nccnc34)ccc2nc1N [Example 183, 2-amino-N',3-dimethyl-N'-(pyrido[3,4-b]pyrazin-5-yl)-N-((5-(thiazol-5-yl)pyridin-2-yl)methyl)quinoline-6-carbohydrazide]",8.41,7.77,18.71,6.50
"Cc1cc2cc(C(=O)N(Cc3ccc(-c4scnc4C)cn3)N(C)c3nccc4nccnc34)ccc2nc1N [Example 185, 2-amino-N',3-dimethyl-N-((5-(4-methylthiazol-5-yl)pyridin-2-yl)methyl)-N'-(pyrido[3,4-b]pyrazin-5-yl)quinoline-6-carbohydrazide]",8.33,8.12,17.07,6.89
"Cc1cc2cc(C(=O)N(Cc3ccc(C4=CCOC4)cn3)N(C)c3ncccn3)ccc2nc1N [Example 186, 2-amino-N-((5-(2,5-dihydrofuran-3-yl)pyridin-2-yl)methyl)-N',3-dimethyl-N'-(pyrimidin-2-yl)quinoline-6-carbohydrazide]",8.25,6.91,23.20,5.55
"Cc1cc2cc(C(=O)N(Cc3ccc(C4=CCCOC4)cn3)N(C)c3ncccn3)ccc2nc1N [Example 187, 2-amino-N-((5-(5,6-dihydro-2H-pyran-3-yl)pyridin-2-yl)methyl)-N',3-dimethyl-N' -(pyrimidin-2-yl)quinoline-6-carbohydrazide]",8.64,7.48,23.88,6.10
"C=Cc1ccc(CN(C(=O)c2ccc3nc(N)c(C)cc3c2)N(C)c2ncccn2)nc1 [Example 188, 2-amino-N',3-dimethyl-N'-(pyrimidin-2-yl)-N-((5-vinylpyridin-2-yl)methyl)quinoline-6-carbohydrazide]",8.57,6.90,22.44,5.55
"Cc1cc2cc(C(=O)N(Cc3ccc(-c4cc[nH]c4)cn3)N(C)c3ncccn3)ccc2nc1N [Example 191, N-((5-(1H-pyrrol-3-yl)pyridin-2-yl)methyl)-2-amino-N',3-dimethyl-N'-(pyrimidin-2-yl)quinoline-6-carbohydrazide]",8.60,6.95,20.90,5.63
"Cc1cc2cc(C(=O)N(Cc3ccc(-c4cnn(C5CC5)c4)cn3)N(C)c3ncccn3)ccc2nc1N [Example 192, 2-amino-N-((5-(1-cyclopropyl-1H-pyrazol-4-yl)pyridin-2-yl)methyl)-N',3-dimethyl -N'-(pyrimidin-2-yl)quinoline-6-carbohydrazide]",8.68,7.36,27.66,5.91
"Cc1cc2cc(C(=O)N(Cc3ccc(-c4cncnc4)cn3)N(C)c3ncccn3)ccc2nc1N [Example 193, 2-amino-N',3-dimethyl-N'-(pyrimidin-2-yl)-N-((5-(pyrimidin-5-yl)pyridin-2-yl)methyl)quinoline-6-carbohydrazide]",8.57,7.03,25.35,5.62
"Cc1cc2cc(C(=O)N(Cc3ccc(C4CC4)cn3)N(C)c3ncccc3C(F)(F)F)ccc2nc1N [Example 196, 2-amino-N-((5-cyclopropylpyridin-2-yl)methyl)-N',3-dimethyl-N'-(3-(trifluoromethyl)pyridin-2-yl)quinoline-6-carbohydrazide]",8.24,7.47,12.97,6.36
"Cc1cc2cc(C(=O)N(Cc3ccc(-c4cnc5ccccc5c4)cn3)N(C)c3ncccn3)ccc2nc1N [Example 197, 2-amino-N',3-dimethyl-N'-(pyrimidin-2-yl)-N-((5-(quinolin-3-yl)pyridin-2-yl)methyl)quinoline-6-carbohydrazide]",8.96,7.47,18.97,6.19
"COc1cc(-c2ccc(CN(C(=O)c3ccc4nc(N)c(C)cc4c3)N(C)c3ncccn3)nc2)cnc1F [Example 199, 2-amino-N-((6'-fluoro-5'-methoxy-[3,3'-bipyridine]-6-yl)methyl)-N',3-dimethyl-N'-(pyrimidin-2-yl)quinoline-6-carbohydrazide]",8.60,6.97,18.53,5.71
"Cc1cc2cc(C(=O)N(Cc3ccc(-c4cn[nH]c4)cn3)N(C)c3ncccn3)ccc2nc1N [Example 200, N-((5-(1H-pyrazol-4-yl)pyridin-2-yl)methyl)-2-amino-N',3-dimethyl-N'-(pyrimidin-2-yl)quinoline-6-carbohydrazide]",8.77,7.44,34.36,5.91
"Cc1cc2cc(C(=O)N(Cc3ccc(-c4ccsc4)cn3)N(C)c3ncccn3)ccc2nc1N [Example 201, 2-amino-N',3-dimethyl-N'-(pyrimidin-2-y 1)-N-((5-(thien-3-yl)pyridin-2-yl)methyl) quinoline-6-carbohydrazide]",8.68,7.29,24.25,5.91
